{"source": "patent US20120207734A1", "about": "(priority 2011, published 2012)", "system": "DU-145 cells", "format": "cell-based, human"}
{"smiles": "C=C1[C@@H](C)[C@H]2[C@H](Cc3ccccc3)NC(=O)[C@]23[C@H](OC(C)=O)/C=C/[C@@](C)(O)C(=O)[C@@H](C)C/C=C/[C@H]3[C@@H]1O", "note": "[Cytochalasin-D]", "values": [{"measurement": "Effect on cell migration", "value": "did not migrate"}, {"measurement": "Relative Wound Density at 24 Hours, Mean", "value": "3.3 ± 0.2"}, {"measurement": "Relative Wound Density at 24 Hours, Percent Relative to Media", "value": 4, "unit": "%"}]}
